Here are results for 13 molecules from patent publication US8895733B2 (Novartis AG, priority 2010, dated 2014).

The target of the first test is T1, Nav 1.7 (Homo sapiens, UniProt Q15858).
T1 construct: expressed in transfected cells
T1 sequence (Q15858 whole entry): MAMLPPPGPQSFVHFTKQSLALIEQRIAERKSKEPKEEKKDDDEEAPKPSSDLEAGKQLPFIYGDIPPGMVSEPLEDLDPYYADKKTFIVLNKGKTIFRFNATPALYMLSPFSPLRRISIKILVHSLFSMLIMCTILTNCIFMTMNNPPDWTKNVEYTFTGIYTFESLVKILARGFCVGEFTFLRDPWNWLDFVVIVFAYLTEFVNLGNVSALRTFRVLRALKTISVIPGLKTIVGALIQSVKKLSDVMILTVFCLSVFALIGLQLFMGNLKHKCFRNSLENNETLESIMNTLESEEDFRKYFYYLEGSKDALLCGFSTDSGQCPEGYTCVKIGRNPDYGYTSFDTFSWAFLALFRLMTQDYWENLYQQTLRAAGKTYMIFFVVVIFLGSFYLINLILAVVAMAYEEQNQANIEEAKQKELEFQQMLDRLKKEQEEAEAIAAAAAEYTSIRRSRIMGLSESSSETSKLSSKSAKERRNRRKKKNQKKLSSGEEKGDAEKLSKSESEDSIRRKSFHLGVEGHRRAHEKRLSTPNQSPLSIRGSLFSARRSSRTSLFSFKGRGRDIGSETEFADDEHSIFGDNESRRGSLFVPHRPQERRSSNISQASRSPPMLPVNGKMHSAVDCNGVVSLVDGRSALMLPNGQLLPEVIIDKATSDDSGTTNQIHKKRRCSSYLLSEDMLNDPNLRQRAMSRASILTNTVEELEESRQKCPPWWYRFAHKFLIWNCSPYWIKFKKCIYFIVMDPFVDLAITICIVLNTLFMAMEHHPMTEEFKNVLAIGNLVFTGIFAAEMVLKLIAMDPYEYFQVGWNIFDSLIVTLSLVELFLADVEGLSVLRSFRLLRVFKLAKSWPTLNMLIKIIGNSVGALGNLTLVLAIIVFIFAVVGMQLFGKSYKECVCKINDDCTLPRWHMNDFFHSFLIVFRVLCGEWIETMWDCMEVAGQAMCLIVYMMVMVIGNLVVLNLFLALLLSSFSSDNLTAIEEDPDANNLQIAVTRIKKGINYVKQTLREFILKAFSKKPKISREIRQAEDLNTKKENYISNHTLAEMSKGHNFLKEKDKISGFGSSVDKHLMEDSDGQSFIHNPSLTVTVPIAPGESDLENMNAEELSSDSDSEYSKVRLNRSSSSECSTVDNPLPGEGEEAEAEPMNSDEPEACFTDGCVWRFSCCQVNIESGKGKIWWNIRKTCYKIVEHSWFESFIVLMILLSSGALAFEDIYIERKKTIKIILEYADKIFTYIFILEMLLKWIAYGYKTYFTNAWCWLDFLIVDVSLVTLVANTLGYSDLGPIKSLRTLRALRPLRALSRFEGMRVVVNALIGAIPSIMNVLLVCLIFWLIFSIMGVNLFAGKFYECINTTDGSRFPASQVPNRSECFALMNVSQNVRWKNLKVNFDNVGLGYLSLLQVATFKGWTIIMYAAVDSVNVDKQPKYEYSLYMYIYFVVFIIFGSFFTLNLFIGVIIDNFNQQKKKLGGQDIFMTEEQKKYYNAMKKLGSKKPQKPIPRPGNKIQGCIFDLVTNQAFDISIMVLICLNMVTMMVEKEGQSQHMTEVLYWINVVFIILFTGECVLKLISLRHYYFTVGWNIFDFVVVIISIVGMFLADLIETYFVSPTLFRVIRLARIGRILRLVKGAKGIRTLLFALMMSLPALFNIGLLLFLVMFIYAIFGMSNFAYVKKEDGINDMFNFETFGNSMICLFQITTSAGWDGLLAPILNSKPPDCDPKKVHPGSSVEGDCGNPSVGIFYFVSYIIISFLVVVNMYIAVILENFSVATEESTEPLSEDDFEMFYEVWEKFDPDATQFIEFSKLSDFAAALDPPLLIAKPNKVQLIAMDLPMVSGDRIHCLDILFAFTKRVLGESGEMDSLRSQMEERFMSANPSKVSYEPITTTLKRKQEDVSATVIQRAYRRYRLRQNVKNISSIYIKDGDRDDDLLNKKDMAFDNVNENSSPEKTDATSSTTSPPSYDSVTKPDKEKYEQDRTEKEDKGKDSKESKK
Briefly: Whole-cell voltage clamp electrophysiology, automated patch clamp (marker c in Table of Examples). The format is cell-based. Conditions: marker c = Automated patch clamp data; read-out: Nav 1.7 activity. The procedure, abridged:
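A voltage protocol weighted toward inactivated-state block was used to test compounds on stably expressing cells, with pulses from −65 mV holding to −10 mV test and −100 mV. Currents came from whole-cell automated patch-clamp recordings, either IonWorks Quattro or other automated instruments, usually in perforated-patch mode.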
On the technique in general: The patch-clamp technique gives a direct electrical read-out from membranes.
`Nc1nc(Nc2ccccc2)nc(-c2noc(C(=O)N3CCC(OCC4CC4)CC3)n2)n1` [Example 462, 6-(5-{[4-(cyclopropylmethoxy)piperidin-1-yl]carbonyl}-1,2,4-oxadiazol-3-yl)-2-N-phenyl-1,3,5-triazine-2,4-diamine]: the IC50 worked out at 3610 nM. Turning to `CN(c1ccccc1)c1nc(N)nc(-c2noc(N3CC4C(COc5ccccc5)C4C3)n2)n1` (stereo not shown) [Example 391, 2-N-methyl-6-{5-[6-(phenoxymethyl)-3-azabicyclo[3.1.0]hexan-3-yl]-1,2,4-oxadiazol-3-yl}-2-N-phenyl-1,3,5-triazine-2,4-diamine], the IC50 was found to be 539 nM. Regarding `CC(OCc1ccc(-c2nc(-c3nc(N)nc(N(C)c4ccccc4)n3)no2)cn1)C(F)(F)F` (stereo not shown) [Example 206, 2-N-methyl-2-N-phenyl-6-[5-(6-{[(1,1,1-trifluoropropan-2-yl)oxy]methyl}pyridin-3-yl)-1,2,4-oxadiazol-3-yl]-1,3,5-triazine-2,4-diamine], the IC50 was determined as 17 nM. Still for that read-out and setting: to `CC(C)OC[C@@H]1[C@H]2CN(c3nc(-c4nc(N)nc(N(C)c5ccccc5)n4)no3)C[C@@H]12` [Example 397, 2-N-methyl-2-N-phenyl-6-{5-[6-[(propan-2-yloxy)methyl]-3-azabicyclo[3.1.0]hexan-3-yl]-1,2,4-oxadiazol-3-yl}-1,3,5-triazine-2,4-diamine] belongs 3940 nM.

Regarding `Nc1nc(Nc2ccccc2)nc(-c2noc(N3CCC4(CC3)COC4)n2)n1` [Example 246, 6-(5-{2-oxa-7-azaspiro[3.5]nonan-7-yl}-1,2,4-oxadiazol-3-yl)-2-N-phenyl-1,3,5-triazine-2,4-diamine], the IC50 came out at 9360 nM.

Turning to `CN(c1ccccc1)c1nc(N)nc(-c2noc(-c3ccc(C[S+]([O-])CC(F)(F)F)nc3)n2)n1` (stereo not shown) [Example 317, 2-N-Methyl-2-N-phenyl-6-[5-(6-{[(2,2,2-trifluoroethane)sulfinyl]methyl}pyridin-3-yl)-1,2,4-oxadiazol-3-yl]-1,3,5-triazine-2,4-diamine], the IC50 is 2770 nM. For `COC(=O)c1ccc(-c2nc(-c3nc(N)nc(N(C)c4ccccc4)n3)no2)nc1` [Example 285, methyl 6-(3-{4-amino-6-[methyl(phenyl)amino]-1,3,5-triazin-2-yl}-1,2,4-oxadiazol-5-yl)pyridine-3-carboxylate], the IC50 was determined as 308 nM. Same read-out and setting: to `Nc1nc(Nc2ccccc2)nc(-c2noc(-c3ccc(COC4CCC4)nc3)n2)n1` [Example 213, 6-{5-[6-(cyclobutoxymethyl)pyridin-3-yl]-1,2,4-oxadiazol-3-yl}-2-N-phenyl-1,3,5-triazine-2,4-diamine] belongs 67 nM.

Staying with this test, now noted: marker c: Automated patch clamp data; read-out: Nav 1.7 activity.
Regarding `COCC1CCN(c2nc(-c3nc(N)nc(N(C)c4ccccc4)n3)no2)CC1` [Example 165, 6-{5-[4-(methoxymethyl)piperidin-1-yl]-1,2,4-oxadiazol-3-yl}-2-N-methyl-2-N-phenyl-1,3,5-triazine-2,4-diamine], the IC50 was determined as 7690 nM. In the case of `CN(c1ccccc1)c1nc(N)nc(-c2noc(C3CCN(S(=O)(=O)c4ccccc4)CC3)n2)n1` [Example 172, 6-{5-[1-(benzenesulfonyl)piperidin-4-yl]-1,2,4-oxadiazol-3-yl}-2-N-methyl-2-N-phenyl-1,3,5-triazine-2,4-diamine], the IC50 was determined as 1080 nM. Regarding `Cc1cccc(N(C)c2nc(N)nc(-c3noc(-c4ccccc4OC(F)(F)F)n3)n2)c1` [Example 194, 2-N-methyl-2-N-(3-methylphenyl)-6-{5-[2-(trifluoromethoxy)phenyl]-1,2,4-oxadiazol-3-yl}-1,3,5-triazine-2,4-diamine], the IC50 is 843 nM.

As for `COc1cccc(F)c1-c1nc(-c2nc(N)nc(N(C)c3cccc(C)c3)n2)no1` [Example 185, 6-[5-(2-fluoro-6-methoxyphenyl)-1,2,4-oxadiazol-3-yl]-2-N-methyl-2-N-(3-methylphenyl)-1,3,5-triazine-2,4-diamine], the IC50 is 144 nM. Consider `COc1ncccc1-c1nc(-c2nc(N)nc(N(C)c3ccccc3)n2)no1` [Example 76, 6-[5-(2-Methoxy-pyridin-3-yl)-[1,2,4]oxadiazol-3-yl]-N-methyl-N-phenyl-[1,3,5]triazine-2,4-diamine], for which the IC50 is 925 nM.
